From patent US9469650B2, “Melampomagnolide B derivatives” (BOARD OF TRUSTEES OF THE UNIVERSITY OF ARKANSAS, priority 2013, dated 2016)

Key:
SF-268 = experiment: panel of 60 human tumor cell lines, growth inhibition (CNS Cancer); conditions: SF-268; Log10 Concentration −8.0
A549/ATCC = experiment: panel of 60 human tumor cell lines, growth inhibition (Non-Small Cell Lung Cancer); conditions: for Percent Growth: A549/ATCC
CAKI-1 = experiment: panel of 60 human tumor cell lines, growth inhibition (Renal Cancer)
MCF7 = experiment: panel of 60 human tumor cell lines, growth inhibition (Breast Cancer); conditions: for GI50: MCF7, MCF7; for Percent Growth: MCF7
OVCAR-8 = experiment: panel of 60 human tumor cell lines, growth inhibition (Ovarian Cancer)
IGROV1 = experiment: as above; conditions: for Percent Growth: IGROVI
MDA-MB-231/ATCC = experiment: panel of 60 human tumor cell lines, growth inhibition (Breast Cancer); conditions: for Percent Growth: MDA-MB-231/ATCC
CCRF-CEM = experiment: panel of 60 human tumor cell lines, growth inhibition (Leukemia)
LOX IMVI = experiment: panel of 60 human tumor cell lines, growth inhibition (Melanoma)
HT29 = experiment: panel of 60 human tumor cell lines, growth inhibition (Colon Cancer); conditions: for Percent Growth: HT29

With `C=C1C(=O)O[C@H]2[C@H]1CC/C(COC(=O)NCCc1ccccn1)=C\CC[C@@]1(C)O[C@@H]21` [JVM 61, ((1aR,7aS,10aS,10bS,E)-1a-methyl-8-methylene-9-oxo-1a,2,3,6,7,7a,8,9,10a,10b-decahydrooxireno[2′,3′:9,10]cyclodeca[1,2-b]furan-5-yl)methyl-(2-(pyridin-2-yl)ethyl)carbamate] the “Percent Growth” value (SF-268) was 106%, the “Percent Growth” value (A549/ATCC; Log10 Concentration −4.0) was −54% and the “Percent Growth” value (A549/ATCC; Log10 Concentration −5.0) was 64%. The “Percent Growth” value (A549/ATCC; Log10 Concentration −6.0) was 6.7%, the “Percent Growth” value (A549/ATCC; Log10 Concentration −8.0) was 95% and the GI50 (A549/ATCC; Homo sapiens, A549) was 13.1 µM. The CC50 (A549/ATCC; Homo sapiens, A549, read-out: LC50) was 92 µM, the IC (TGI) (A549/ATCC; Homo sapiens, A549, read-out: TGI) was 34.7 µM and the “Percent Growth” value (CAKI-1; CAKI-1, Log10 Concentration −4.0) was −83%. The “Percent Growth” value (CAKI-1; CAKI-1, Log10 Concentration −5.0) was 6%, the “Percent Growth” value (CAKI-1; CAKI-1, Log10 Concentration −6.0) was 88% and the “Percent Growth” value (CAKI-1; CAKI-1, Log10 Concentration −7.0) was 93%. For the same compound, the “Percent Growth” value (CAKI-1; CAKI-1, Log10 Concentration −8.0) was 99%, the GI50 (CAKI-1; Homo sapiens, CAKI-1) was 2.88 µM and the CC50 (CAKI-1; Homo sapiens, CAKI-1, read-out: LC50) was 42.8 µM. It also gave an IC (TGI) (CAKI-1; Homo sapiens, CAKI-1, read-out: TGI) of 11.7 µM, a GI50 (MCF7; Homo sapiens) of 2.65 µM and a GI50 (MCF7; Homo sapiens, 5-dose assay) of 2.85 µM. The CC50 (MCF7; Homo sapiens, MCF7, read-out: LC50) was 61.4 µM, the IC (TGI) (MCF7; Homo sapiens, MCF7, read-out: TGI) was 13 µM and the “Percent Growth” value (MCF7; Log10 Concentration −4.0) was −66%. For the same compound, the “Percent Growth” value (MCF7; Log10 Concentration −5.0) was 8%, the “Percent Growth” value (MCF7; Log10 Concentration −6.0) was 85% and the “Percent Growth” value (MCF7; Log10 Concentration −8.0) was 91%. For the same compound, the GI50 (OVCAR-8; Homo sapiens, OVCAR-8) was 4.39 µM, the CC50 (OVCAR-8; Homo sapiens, OVCAR-8, read-out: LC50) was 65.1 µM and the IC (TGI) (OVCAR-8; Homo sapiens, OVCAR-8, read-out: TGI) was 18.5 µM. For the same compound, the “Percent Growth” value (OVCAR-8; OVCAR-8, Log10 Concentration −4.0) was −67%, the “Percent Growth” value (OVCAR-8; OVCAR-8, Log10 Concentration −5.0) was 25% and the “Percent Growth” value (OVCAR-8; OVCAR-8, Log10 Concentration −6.0) was 96%. For the same compound, the “Percent Growth” value (OVCAR-8; OVCAR-8, Log10 Concentration −7.0) was 100%, the “Percent Growth” value (OVCAR-8; OVCAR-8, Log10 Concentration −8.0) was 108% and the GI50 (IGROV1; Homo sapiens, IGROV-1) was 14.4 µM. For the same compound, the CC50 (IGROV1; Homo sapiens, IGROV-1, read-out: LC50) was 78.9 µM, the IC (TGI) (IGROV1; Homo sapiens, IGROV-1, read-out: TGI) was 33.8 µM and the “Percent Growth” value (IGROV1; Log10 Concentration −4.0) was −64%. For the same compound, the “Percent Growth” value (IGROV1; Log10 Concentration −5.0) was 72%, the “Percent Growth” value (IGROV1; Log10 Concentration −6.0) was 102% and the “Percent Growth” value (IGROV1; Log10 Concentration −7.0) was 104%. For the same compound, the “Percent Growth” value (IGROV1; Log10 Concentration −8.0) was 106%, the GI50 (MDA-MB-231/ATCC; Homo sapiens, MDA-MB-231) was 11.4 µM and the CC50 (MDA-MB-231/ATCC; Homo sapiens, MDA-MB-231, read-out: LC50) was 56.4 µM. For the same compound, the IC (TGI) (MDA-MB-231/ATCC; Homo sapiens, MDA-MB-231, read-out: TGI) was 25.4 µM, the “Percent Growth” value (MDA-MB-231/ATCC; Log10 Concentration −4.0) was −86% and the “Percent Growth” value (MDA-MB-231/ATCC; Log10 Concentration −5.0) was 58%. For the same compound, the “Percent Growth” value (MDA-MB-231/ATCC; Log10 Concentration −6.0) was 96%, the “Percent Growth” value (MDA-MB-231/ATCC; Log10 Concentration −7.0) was 100% and the “Percent Growth” value (MDA-MB-231/ATCC; Log10 Concentration −8.0) was 103%. The GI50 (CCRF-CEM; Homo sapiens) was 2.65 µM, the GI50 (CCRF-CEM; Homo sapiens, 5-dose assay) was 2.65 µM and the CC50 (CCRF-CEM; Homo sapiens, read-out: LC50) was over 100 µM. The IC (TGI) (CCRF-CEM; Homo sapiens, read-out: TGI) was 8.59 µM, the “Percent Growth” value (CCRF-CEM; Log10 Concentration −4.0) was −39% and the “Percent Growth” value (CCRF-CEM; Log10 Concentration −5.0) was −6%. The “Percent Growth” value (CCRF-CEM; Log10 Concentration −6.0) was 91%, the “Percent Growth” value (CCRF-CEM; Log10 Concentration −7.0) was 100% and the “Percent Growth” value (CCRF-CEM; Log10 Concentration −8.0) was 104%. For the same compound, the GI50 (LOX IMVI; Homo sapiens) was 4.96 µM, the GI50 (LOX IMVI; Homo sapiens, 5-dose assay) was 4.96 µM and the CC50 (LOX IMVI; Homo sapiens, read-out: LC50) was 58.2 µM. For the same compound, the IC (TGI) (LOX IMVI; Homo sapiens, read-out: TGI) was 19.4 µM, the “Percent Growth” value (LOX IMVI; Log10 Concentration −4.0) was −75% and the “Percent Growth” value (LOX IMVI; Log10 Concentration −5.0) was 30%. For the same compound, the “Percent Growth” value (LOX IMVI; Log10 Concentration −6.0) was 96%, the “Percent Growth” value (LOX IMVI; Log10 Concentration −7.0) was 102% and the “Percent Growth” value (LOX IMVI; Log10 Concentration −8.0) was 99%. The “Percent Growth” value (HT29; Log10 Concentration −4.0) was −78%, the “Percent Growth” value (HT29; Log10 Concentration −5.0) was 24% and the “Percent Growth” value (HT29; Log10 Concentration −6.0) was 110%. The “Percent Growth” value (HT29; Log10 Concentration −7.0) was 106%, the “Percent Growth” value (HT29; Log10 Concentration −8.0) was 104% and the GI50 (HT29; Homo sapiens, HT-29) was 4.69 µM. It also gave a CC50 (HT29; Homo sapiens, HT-29, read-out: LC50) of 53.1 µM and an IC (TGI) (HT29; Homo sapiens, HT-29, read-out: TGI) of 17.2 µM.
